The source of these data is patent publication US20130296383A1, “DECAHYDRO-1,4-METHANONAPHTHALEN CARBOXAMIDES” (BAYER INTELLECTUAL PROPERTY GMBH, priority 2010, published 2013).

By chromatographic logP is commonly meant a lipophilicity value derived from retention on a column.

One data set concerns Alternaria solani. Put plainly: Alternaria test (tomato) / preventive. It is filed as in vivo. As to conditions: 500 ppm of active ingredient, evaluated 7 days after inoculation. As to the method: Alternaria Test (Tomato)/Preventive
(§1) To produce a suitable preparation of active compound, 1 part by weight of active compound is mixed with the stated amounts of solvent and emulsifier, and the concentrate is diluted with water to the desired concentration.
To test for preventive activity, young plants are sprayed with the preparation of active compound at the stated rate of application. One day after this treatment, the plants are inoculated with an aqueous spore suspension of Alternaria solani. The plants remain for one day in an incubation cabinet at approximately 22° C. and a relative atmospheric humidity of 100%. Then the plants are placed in an incubation cabinet at approximately 20° C. and a relative atmospheric humidity of 96%.
The test is evaluated 7 days after the inoculation. 0% means an efficacy which corresponds to that of the untreated control while an efficacy of 100% means that no disease is observed.

For the next data set, the system named is Venturia inaequalis. The data set can be described thus: Venturia test (apples) / preventive. It is filed as in vivo. As to conditions: 100 ppm of active ingredient, evaluated 10 days after inoculation. As to the method: Venturia Test (Apples)/Preventive
as §1
To test for preventive activity, young plants are sprayed with the preparation of active compound at the stated rate of application. After the spray coating has dried on, the plants are inoculated with an aqueous conidia suspension of the causal agent of apple scab (Venturia inaequalis) and then remain for 1 day in an incubation cabinet at approximately 20° C. and a relative atmospheric humidity of 100%.
The plants are then placed in a greenhouse at approximately 21° C. and a relative atmospheric humidity of approximately 90%.
The test is evaluated 10 days after the inoculation. 0% means an efficacy which corresponds to that of the untreated control, while an efficacy of 100% means that no disease is observed.

Data set [1] can be described thus: log P by HPLC on reversed phase columns (EEC directive 79/831 Annex V.A8), method [b]. The format is physicochemical. Here is the method: Calibration was done with not branched alkan2-ones (with 3 to 16 carbon atoms) with known log P-values (measurement of log P values using retention times with linear interpolation between successive alkanones). lambda-maX-values were determined using UV-spectra from 200 nm to 400 nm and the peak values of the chromatographic signals.

The subject of data set [2] is Blumeria graminis f.sp. hordei. Put plainly: Blumeria test (barley) / preventive. It is filed as in vivo. As to conditions: 500 ppm of active ingredient, evaluated 7 days after inoculation. As to the method:
Blumeria Test (Barley)/Preventive
(§2) To produce a suitable preparation of active compound, 1 part by weight of active compound or active compound combination is mixed with the stated amounts of solvent and emulsifier, and the concentrate is diluted with water to the desired concentration.
(§3) To test for preventive activity, young plants are sprayed with the preparation of active compound or active compound combination at the stated rate of application.
After the spray coating has been dried, the plants are dusted with spores of Blumeria graminis f.sp. hordei.
The plants are placed in the greenhouse at a temperature of approximately 18° C. and a relative atmospheric humidity of approximately 80% to promote the development of mildew pustules.
(§4) The test is evaluated 7 days after the inoculation. 0% means an efficacy which corresponds to that of the untreated control, while an efficacy of 100% means that no disease is observed.

Another data set relates to Pyrenophora teres. The data set can be described thus: Pyrenophora test (barley) / preventive. The format is in vivo. To be noted: 500 ppm of active ingredient, evaluated 7-9 days after inoculation. As to the method:
Pyrenophora Test (Barley)/Preventive
as §1
To test for preventive activity, young plants are sprayed with the preparation of active compound at the stated rate of application. One day after this treatment, the plants are inoculated with an aqueous spore suspension of Pyrenophora teres. The plants remain for 48 hours in an incubation cabinet at 22° C. and a relative atmospheric humidity of 100%. Then the plants are placed in a greenhouse at a temperature of approximately 20° C. and a relative atmospheric humidity of approximately 80%.
(§5) The test is evaluated 7-9 days after the inoculation. 0% means an efficacy which corresponds to that of the untreated control while an efficacy of 100% means that no disease is observed.

The next data set has as its system Septoria tritici. Put plainly: Septoria tritici test (wheat) / preventive. The format is in vivo. As to conditions: 500 ppm of active ingredient, evaluated 21 days after inoculation. Here is the method: Septoria Tritici-Test (Wheat)/Preventive
as §2, §3
After the spray coating has been dried, the plants are sprayed with a spore suspension of Septoria tritici. The plants remain for 48 hours in an incubation cabinet at approximately 20° C. and a relative atmospheric humidity of approximately 100% and afterwards for 60 hours at approximately 15° C. in a translucent incubation cabinet at a relative atmospheric humidity of approximately 100%.
The plants are placed in the greenhouse at a temperature of approximately 15° C. and a relative atmospheric humidity of approximately 80%.
The test is evaluated 21 days after the inoculation. 0% means an efficacy which corresponds to that of the untreated control, while an efficacy of 100% means that no disease is observed.

A further data set has as its system Sphaerotheca fuliginea. Put plainly: Sphaerotheca test (cucumber) / preventive. The format is in vivo. To be noted: 500 ppm of active ingredient, evaluated 7 days after inoculation. As to the method:
Sphaerotheca Test (Cucumber)/Preventive
as §1
To test for preventive activity, young plants are sprayed with the preparation of active compound at the stated rate of application. One day after this treatment, the plants are inoculated with an aqueous spore suspension of Sphaerotheca fuliginea. Then the plants are placed in a greenhouse at approximately 23° C. and a relative atmospheric humidity of approximately 70%.
as §4

The next data set relates to Puccinia recondita. Put plainly: Puccinia test (wheat) / preventive. The format is in vivo. As to conditions: 500 ppm of active ingredient, evaluated 7-9 days after inoculation. As to the method:
Puccinia Test (Wheat)/Preventive
as §1
To test for preventive activity, young plants are sprayed with the preparation of active compound at the stated rate of application. One day after this treatment, the plants are inoculated with an aqueous spore suspension of Puccinia recondita. The plants remain for 48 hours in an incubation cabinet at 22° C. and a relative atmospheric humidity of 100%. Then the plants are placed in a greenhouse at a temperature of approximately 20° C. and a relative atmospheric humidity of approximately 80%.
as §5

Turning to `CC(C)C1C2CCC1C1C(NC(=O)c3c(C(F)F)nn(C)c3F)CCCC21` (stereo not drawn) [Example 1, 3-(difluoromethyl)-5-fluoro-N-(9-isopropyldecahydro-1,4-methanonaphthalen-5-yl)-1-methyl-1H-pyrazole-4-carboxamide], the Eff. % is given as 95% with Alternaria solani; 100% in the data set on Venturia inaequalis; 100% in data set [2]; 100% in the data set with Pyrenophora teres; 90% in the data set on Septoria tritici; 100% in the data set on Sphaerotheca fuliginea. The compound further gave an Eff. % with Puccinia recondita of 95%. Besides, the “LogP[b]” value in data set [1] (HPLC, pH 2.7, 0.1% formic acid in water / acetonitrile gradient) is “LogP^[b] = 4.87”. The compound also had a chromatographic logP in data set [1] (reversed phase HPLC columns, pH 2.7, acid) of 4.87.
